Experimental data published in publication PMC7910394, “Design of PSMA ligands with modifications at the inhibitor part: an approach to reduce the salivary gland uptake of radiolabeled PSMA inhibitors?” (EJNMMI Radiopharmacy and Chemistry, 2021).

What was measured:
[1] = biological target: T1, PSMA (Homo sapiens, UniProt Q04609); assay: Competitive binding assay (IC50) on LNCaP cells with ([125I]I-BA)KuE as radioligand; details: ([125I]I-BA)KuE 0.2 nM, HBSS (1% BSA), 4 °C, 1 h
T1 construct: host or cells: LNCaP human prostate cancer cells
Experimental: PSMA-positive LNCaP cells (300265; Cell Lines Service, Eppelheim, Germany) were cultivated in Dulbecco’s modified Eagle medium/Nutrition Mixture F-12 with GlutaMAX (1/1, DMEM-F12, Thermo Fisher Scientific, Darmstadt, Germany) supplemented with 10% fetal bovine serum (Merck KGaA, Darmstadt, Germany) and kept at 37 °C in a humidified 5% CO2 atmosphere. One day (24 ± 2 h) prior to all in vitro experiments, the cultivated LNCaP cells were harvested using a mixture of trypsin/ethylenediamine-tetraacetic acid (0.05%/0.02%) in PBS (Thermo Fisher Scientific, Darmstadt, Germany) and centrifuged at 1300 rpm (ca. 190×g) for 3 min at room temperature (Heraeus Megafuge 16, Thermo Fisher Scientific, Darmstadt, Germany). After centrifugation, the supernatant was disposed and the cell pellet was resuspended in culture medium. Cells were counted with a Neubauer hemocytometer (Paul Marienfeld GmbH & Co. KG, Lauda-Königshofen, Germany) and seeded in 24-well plates.
Detailed information on affinity and internalization experiments is provided in the supporting information. […] IC50 values of (^natI-BA)KuE were determined on the same day for monitoring assay performance and to identify abnormal deviations in uptake and/or affinity. […] Data were corrected for non-specific binding and normalized to the specific internalization observed for the radioiodinated reference compound (n = 3).
The culture medium was removed and the cells were washed with 500 µL of Hank’s balanced salt solution (HBSS) (Merck KGaA, Darmstadt, Germany), containing 1% bovine serum albumin (BSA) (Merck KGaA, Darmstadt, Germany). Afterwards, 200 µL of HBSS (1% BSA) were added to each well and equilibrated on ice (4 °C) for 15 min. […] Experiments were carried out in triplicates for each concentration. The final concentrations of unlabeled ligand ranged from 10^-11 - 10^-5 M and the final radioligand concentration was 0.2 nM in all binding assays. The cells were incubated for one hour at 4 °C. Incubation was terminated by removal of the incubation medium. The cells were washed with 250 µL of HBSS (1% BSA) and the wash medium was combined with the respective supernatant. This fraction represents the amount of free radioligand. The cells were lysed by addition of 250 µL of 1 M aqueous NaOH. The lysate of each well was transferred to the respective vial as well as 250 µL of 1 M NaOH used for rinsing the well. Quantification of the amount of free and bound activity was performed in a γ-counter. The corresponding IC50 values were calculated using the GraphPad PRISM7 software.

[2] = system: LNCaP tumor xenograft-bearing CB17-SCID mouse; assay type: in vivo; details: 1 h p.i.
Experimental: Detailed information on organ preparation and extraction procedures is provided in the supporting information. In brief, [^177Lu]Lu-11 (9.64 MBq) was injected into the tail vein of a LNCaP tumor xenograft-bearing CB17-SCID mouse. The animal was sacrificed 1 h p.i. and subjected to the standard procedure for biodistribution studies. In addition, urine was taken from all mice that were investigated in this experiment (8.4–9.0 MBq injected activity) and pooled (n = 5). Liver, tumor and kidneys were homogenized with a MM-400 ball mill (Retsch GmbH, Haan, Germany) at 30 Hz for 20 min and extracted with 1 mL radioimmunoprecipitation assay (RIPA) buffer containing 2 μmol of 2-(phosphonomethyl)pentane-1,5-dioic acid (2-PMPA). The suspension was centrifuged (15,200 rpm, 10 min, 21 °C) and the supernatants were loaded onto a preconditioned Strata-X cartridge (200 mg). Elution of the activity was conducted by 750 μL of MeCN/H2O (6/4, 0.1% TFA) and the extracts were analyzed via radio-RP-HPLC. Prior to solid phase extraction, blood samples were centrifuged twice (13,000 rpm, 5 min) to separate the plasma from the blood cells. Urine samples were also centrifuged (13,000 rpm, 5 min) and the supernatant was directly analyzed via radio-RP-HPLC.
Besides biodistribution and μSPECT/CT studies, [^177Lu]Lu-11 (tetrazole) was analyzed according to its metabolic stability 1 h p.i. Relevant dissected organs (tumor, kidney, liver) and body fluids (blood and urine) were collected, homogenized if necessary and subjected to extraction of the incorporated activity. […] The respective radio-RP-HPLC analyses of extracts from homogenized organs and body fluids are depicted in Figure 1 in the supporting information.
[^177Lu]Lu-11 (9.64 MBq) was injected into the tail vein of a LNCaP tumor xenograft-bearing CB17-SCID mouse. The animal was sacrificed 1 h p.i. and subjected to the standard procedure for biodistribution studies. In addition, urine was taken from all mice that were investigated in this experiment (8.4 - 9.0 MBq) and pooled (n = 5). Relevant dissected organs (tumor, kidneys, liver) and body fluids (blood and urine) were collected, homogenized if necessary and subjected to mechanochemical as well as solid phase extraction (SPE).
Four 2 mL LoBind tubes were equipped with steel and ceramic beads from Lysis Tubes W (analytikjena, Jena, Germany) for kidneys, tumor and liver (bisected). 1 mL radioimmunoprecipitation assay (RIPA) buffer containing 2.0 µmol of 2-PMPA was added to each tube and the organs were homogenized with a MM-400 ball mill (Retsch GmbH, Haan, Germany) at 30 Hz for 20 min. Afterwards, the homogenates were transferred to LoBind tubes free from steel and ceramic beads and centrifuged (15,200 rpm, 10 min, 21 °C). The first supernatants were stored, and the precipitates were again subjected to mechanochemical extraction with 1 mL RIPA buffer (2.0 µmol PMPA) at 30 Hz for 20 min. After centrifugation (15,200 rpm, 10 min, 21 °C), also the second supernatants were kept for SPE.
After cardiac puncture, 1 mL Tracepur®-H2O was directly added to the collected blood sample and centrifuged twice (13,000 rpm, 5 min) to separate the plasma from the blood cells. The precipitate was dissolved in 500 µL Tracepur®-H2O and together with the first supernatant again centrifuged (13,000 rpm, 5 min). Both supernatants were kept for SPE.
Pooled urine samples were centrifuged (13,000 rpm, 5 min) and the supernatant was directly analyzed via radio-RP-HPLC.

T1 sequence (Q04609 whole entry): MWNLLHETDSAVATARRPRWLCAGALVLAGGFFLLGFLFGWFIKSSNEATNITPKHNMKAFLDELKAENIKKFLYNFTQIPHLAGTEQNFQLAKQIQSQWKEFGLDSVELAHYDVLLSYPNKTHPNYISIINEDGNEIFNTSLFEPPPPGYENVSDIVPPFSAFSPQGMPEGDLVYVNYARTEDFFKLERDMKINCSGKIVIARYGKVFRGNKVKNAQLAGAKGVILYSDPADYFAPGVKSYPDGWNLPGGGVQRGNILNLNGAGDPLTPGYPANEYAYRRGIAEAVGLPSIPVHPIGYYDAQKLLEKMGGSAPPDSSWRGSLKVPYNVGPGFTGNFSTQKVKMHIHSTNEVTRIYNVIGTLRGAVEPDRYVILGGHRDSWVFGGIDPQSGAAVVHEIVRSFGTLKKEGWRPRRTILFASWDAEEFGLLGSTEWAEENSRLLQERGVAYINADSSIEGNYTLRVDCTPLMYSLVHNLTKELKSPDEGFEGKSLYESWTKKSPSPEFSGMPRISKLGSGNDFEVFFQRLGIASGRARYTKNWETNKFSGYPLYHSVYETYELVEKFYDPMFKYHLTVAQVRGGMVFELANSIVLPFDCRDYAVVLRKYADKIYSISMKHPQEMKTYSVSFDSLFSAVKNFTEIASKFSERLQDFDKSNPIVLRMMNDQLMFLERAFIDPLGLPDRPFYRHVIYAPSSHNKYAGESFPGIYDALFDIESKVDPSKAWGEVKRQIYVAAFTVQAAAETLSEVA

CC(C)(C)[Si](F)(c1ccc(C(=O)NC[C@@H](NC(=O)CN2CCN(CC(=O)[O-])CCN(CC(=O)[O-])CCN(CC(=O)[O-])CC2)C(=O)N[C@H](CCCCNC(=O)CCC(=O)NCCC[C@@H](NC(=O)CC[C@H](NC(=O)N[C@@H](CCc2nnn[nH]2)C(=O)O)C(=O)O)C(=O)O)C(=O)O)cc1)C(C)(C)C.[Lu+3] [^natLu/[^177Lu]Lu-11]
IC50 [1]: 16.4 ± 3.8 nM
metabolite with higher hydrophilicity found in the urine ([2]; pooled urine (n = 5)): 18.7%
metabolite with higher hydrophilicity detected in blood ([2]; radio-RP-HPLC of extract): 8.5%
metabolite with higher hydrophilicity detected in kidney ([2]; radio-RP-HPLC of extract): 11.7%
metabolite with higher hydrophilicity detected in tumor ([2]; radio-RP-HPLC of extract): 7.1%
metabolite with higher hydrophilicity in the liver homogenate ([2]; radio-RP-HPLC of extract): not detectable
more lipophilic metabolite (tR = 20.5 min) in the liver homogenate ([2]; radio-RP-HPLC of extract): 28.0%
